pEC50: −log10 of the molar value.

The target of this test is T1, human M4 muscarinic acetylcholine receptor (Homo sapiens, UniProt P08173).
T1 construct: expressed in transfected cells; host or cells: CHO-K1
T1 sequence (P08173 1-479): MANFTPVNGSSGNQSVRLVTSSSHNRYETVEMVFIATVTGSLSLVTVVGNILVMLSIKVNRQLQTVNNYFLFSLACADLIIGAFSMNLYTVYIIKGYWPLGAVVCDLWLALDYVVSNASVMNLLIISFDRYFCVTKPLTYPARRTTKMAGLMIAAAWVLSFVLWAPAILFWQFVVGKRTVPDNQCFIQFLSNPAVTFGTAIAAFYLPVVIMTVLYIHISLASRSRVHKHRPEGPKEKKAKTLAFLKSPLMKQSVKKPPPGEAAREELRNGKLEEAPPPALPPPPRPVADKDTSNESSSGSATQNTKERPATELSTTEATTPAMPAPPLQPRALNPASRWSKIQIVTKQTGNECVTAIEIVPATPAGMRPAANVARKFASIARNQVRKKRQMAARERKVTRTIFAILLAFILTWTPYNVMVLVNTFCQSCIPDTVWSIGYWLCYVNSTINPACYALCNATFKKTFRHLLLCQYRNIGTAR
Put plainly: human FLIPR-based M4 PAM assay (Ca2+ dye fluorescence, CHO-K1 cells with human M4 receptor and Gαqi5). It is filed as cell-based. Conditions: inflection point (IP) of dose response curve, FLIPR Tetra, acetylcholine at 20% of maximum response. The method, then: In a typical experiment the M4 muscarinic acetylcholine receptor modulating activity of the compounds of the present invention was determined in accordance with the following experimental method. CHO-K1 cells stably transfected with human M4 receptor and chimeric G-protein Gαqi5 (Coward P, et al., Analytical Biochemistry, 270:242-248 (1999)) are thawed from liquid N2 storage, resuspended in growth medium, plated in black, clear bottom 384 well plates, and incubated 16-20 hours at 37° C., 5% CO2. On the day of assay, growth medium is removed, the cells are washed 2 times with wash buffer, and cells are incubated in dye loading buffer at 37° C., 5% CO2 for ˜1 hour. Following dye loading the cell plates are placed in a FLIPR Tetra instrument and while monitoring dye fluorescence (excitation […]), 10 uL of test substance at increasing concentrations is added, and fluorescence values are recorded for 4 min. Next, 10 uL of acetylcholine is added (final concentration calculated so as to achieve 20% of the maximum acetycholine response), and the fluorescence reading is continued for 3.5 min. In some cases, a third addition of acetylcholine (final concentration calculated to achieve 70% of the maximal acetylcholine response) is performed. The resulting dose response curves are fit to a 4 parameter logistic equation and the final result is determined as the inflection point (IP) of the curve
CHO-K1 cells stably transfected with human M4 receptor and chimeric G-protein Gαqi5 are thawed from liquid N2 storage, resuspended in growth medium, plated in black, clear bottom 384 well plates, and incubated 16-20 hours at 37° C., 5% CO2.
On the day of assay, growth medium is removed, the cells are washed 2 times with wash buffer, and cells are incubated in dye loading buffer at 37° C., 5% CO2 for ˜1 h. Following dye loading the cell plates are placed in a FLIPR Tetra instrument and while monitoring dye fluorescence ([…]), 10 uL of test substance at increasing concentrations is added, and fluorescence values are recorded for 4 min. Next, 10 uL of acetylcholine is added (final concentration calculated so as to achieve 20% of the maximum acetycholine response), and the fluorescence reading is continued for 3.5 min. In some cases, a third addition of acetylcholine (final concentration calculated to achieve 70% of the maximal acetylcholine response) is performed.
As for `Cc1c(N2CCC(OCC3(C)CC3)C3CC32)nc2c(c1C)C(=O)N(CCS(C)(=O)=O)C2` (single isomer, unassigned) [Example 17, 3,4-dimethyl-2-(5-((1-methylcyclopropyl)methoxy)-2-azabicyclo[4.1.0]heptan-2-yl)-6-(2-(methylsulfonyl)ethyl)-6,7-dihydro-5H-pyrrolo[3,4-b]pyridin-5-one], the negative-log EC50 (pEC50) (as a rule, −log10 of the EC50, conventionally taken in molar units) was 6.99.
To `CCc1cc2c(nc1N1CCC(OCC3(C)CC3)C3CC31)C(CO)N(C)C2=O` (single isomer, unassigned) [Example 10, 3-ethyl-7-(hydroxymethyl)-6-methyl-2-(5-((1-methylcyclopropyl)methoxy)-2-azabicyclo[4.1.0]heptan-2-yl)-6,7-dihydro-5H-pyrrolo[3,4-b]pyridin-5-one] belongs 7.33; to `Cc1c(N2CCC(OCC3(C)CC3)C3CC32)nc2c(c1C)C(=O)N(CCC#N)C2` (single isomer, unassigned) [Example 16, 3-(3,4-dimethyl-2-(5-((1-methylcyclopropyl)methoxy)-2-azabicyclo[4.1.0]heptan-2-yl)-5-oxo-5,7-dihydro-6H-pyrrolo[3,4-b]pyridin-6-yl)propanenitrile], 5.82.
Consider `Cc1cc2c(nc1N1CCC(Oc3ccc4c(c3)COC4)C3CC31)CNC2=O` (stereo not shown) [Example 28, 2-(5-((1,3-dihydroisobenzofuran-5-yl)oxy)-2-azabicyclo[4.1.0]heptan-2-yl)-3-methyl-6,7-dihydro-5H-pyrrolo[3,4-b]pyridin-5-one], for which the pEC50 is 7.12. This pEC50 lies 1.30 log units higher than the previous one.
To `Cc1c(N2CCC(OCC3(C)CC3)C3CC32)nc2c(c1C)C(=O)N(CC(C)(C)O)C2` (single isomer, unassigned) [Example 20, 6-(2-hydroxy-2-methylpropyl)-3,4-dimethyl-2-(5-((1-methylcyclopropyl)methoxy)-2-azabicyclo[4.1.0]heptan-2-yl)-6,7-dihydro-5H-pyrrolo[3,4-b]pyridin-5-one] belongs 4.92.
As for `Cc1c(N2CCC(OCC3(C)CC3)C3CC32)nc2c(c1C)C(=O)N(C)C2CO` (single isomer, unassigned) [Example 5, 7-(hydroxymethyl)-3,4,6-trimethyl-2-(5-((1-methylcyclopropyl)methoxy)-2-azabicyclo[4.1.0]heptan-2-yl)-6,7-dihydro-5H-pyrrolo[3,4-b]pyridin-5-one], the negative-log EC50 (pEC50) is 6.93.
With `Cc1cc2c(nc1N1CCC(Oc3ccc4c(c3)CCOC4)C3CC31)CNC2=O` (stereo not shown) [Example 31, 2-(5-(isochroman-6-yloxy)-2-azabicyclo[4.1.0]heptan-2-yl)-3-methyl-6,7-dihydro-5H-pyrrolo[3,4-b]pyridin-5-one] the figure was 7.14.
With `Cc1c(N2CCC(OCC3(C)CC3)C3CC32)nc2c(c1C)C(=O)N(C)C2CO` (single isomer, unassigned) [Example 8, 7-(hydroxymethyl)-3,4,6-trimethyl-2-(5-((1-methylcyclopropyl)methoxy)-2-azabicyclo[4.1.0]heptan-2-yl)-6,7-dihydro-5H-pyrrolo[3,4-b]pyridin-5-one] the figure was 5.52; with `Cc1c(N2CCC(OCC3(C)CC3)C3CC32)nc2c(c1C)C(=O)N(CCS(C)(=O)=O)C2` (single isomer, unassigned) [Example 18], 4.69.
With `Cc1c(N2CCC(OCC3(C)CC3)C3CC32)nc2c(c1C)C(=O)N(C)C2CO` (single isomer, unassigned) [Example 7, 7-(hydroxymethyl)-3,4,6-trimethyl-2-(5-((1-methylcyclopropyl)methoxy)-2-azabicyclo[4.1.0]heptan-2-yl)-6,7-dihydro-5H-pyrrolo[3,4-b]pyridin-5-one] the figure was 6.18.

The values are drawn from US10945771B2, “Azabicyclo[4.1.0]heptane allosteric modulators of the M4 muscarinic acetylcholine receptor” (Merck Sharp & Dohme Corp., priority 2017, dated 2021).
